From patent publication US20230321117A1, “USE OF […] TREATING AN EPILEPSY DISORDER” (MARINUS PHARMACEUTICALS, INC., priority 2020, published 2023)

Key:
Type in all cases: in vivo, human
[1] = Plasma ganaxolone concentration in phase 3 CDD trial (PK/PD analysis)
From the text: (§1) Global, randomized, double-blind, placebo-controlled phase 3 clinical trial to assess the safety and efficacy of adjunctive ganaxolone for the treatment of seizures associated with CDD. Patients aged 2 to 21 years with a pathogenic or likely pathogenic mutation of the CDKL5 gene, neurodevelopmental impairment, and seizures refractory to treatment with at least 2 prior antiseizure medications who experienced at least 16 seizures per 28 days during the 2 months prior to screening were eligible to enroll. Study consisted of a 6-week baseline followed by a 17-week double-blind phase (ganaxolone or placebo, 1:1). The dose of ganaxolone 50 mg/mL suspension was titrated over 4 weeks to 63 mg/kg/day (21 mg/kg TID), not to exceed 1800 mg/d (600 mg TID), or to the maximum tolerated dose. Blood draws for PK analysis were scheduled to occur at visit 3 (week 5), visit 4 (week 9), and visit 5 (week 17).
Mean ganaxolone concentration was calculated for each subject using available results from up to three laboratory determinations during the double-blind phase. Linear regression was conducted using arithmetic- and natural logarithm-transformed percent reduction in major motor seizures (loge [percent reduction+100]) as dependent variable and natural logarithm-transformed mean ganaxolone concentration as the single explanatory variable. Regression diagnostics included examination of residual and normal probability plots and determination of outliers and influential values. Cases with standardized residuals >2 or <−2 were excluded from the model and the regression was repeated.
The resulting sample was utilized in determination of a Pearson correlation coefficient (using log-transformed values). Additionally, percent seizure reduction was compared in three tertiles representing low (N=13), medium (N=13) and high (N=12) mean per subject ganaxolone concentrations using a Kruskal-Wallis test.

[2] = tested on: partial-onset (focal) seizures; experiment: Phase 3 trial in adults with focal seizures
Protocol: Based on the results of the phase 2 study, a double-blind, placebo-controlled phase 3 trial in adults with focal seizures was conducted. The study enrolled two cohorts: Cohort 1 was an initial assessment of safety and tolerability of GNX 1200 or 1800 mg/day compared to placebo. Cohort 2, on which the primary efficacy analysis was based, enrolled 359 participants with a diagnosis of epilepsy with uncontrolled partial-onset (focal) seizures with or without secondary generalization who had failed at least two prior AEDs and had been on a stable regimen of one to three AEDs for at least one month. Following an eight-week prospective baseline period during which there were at least three seizures/28 days, participants were randomized to GNX 1800 mg/d (N=179) or placebo (N=180). The primary endpoint was the percent change in 28-day frequency of focal motor, focal impaired awareness and focal to bilateral tonic-clonic seizures from baseline to the double-blind phase. The primary efficacy analysis was a rank ANCOVA based on the modified intent-to-treat (mITT) population, defined as randomized participants who had taken at least one dose of study drug and provided post-baseline seizure data.

[3] = tested on: major motor seizures in patients with CDKL5 deficiency disorder (CDD); experiment: Percent change in major motor seizure frequency vs plasma ganaxolone level, phase 3 CDD trial; details: back-transformation of log values; CDD participants
From the text: as §1
Mean ganaxolone concentration was calculated for each subject using available results from up to three laboratory determinations during the double-blind phase. Linear regression was conducted using arithmetic- and natural logarithm-transformed percent reduction in major motor seizures (loge [percent reduction+100]) as dependent variable and natural logarithm-transformed mean ganaxolone concentration as the single explanatory variable. […]

[4] = tested on: partial-onset (focal) seizures; experiment: Phase 2 study in adults with uncontrolled partial-onset (focal) seizures
Protocol: A Phase 2 study was conducted. It enrolled 147 participants 18-69 years of age with a diagnosis of epilepsy with uncontrolled partial-onset (focal) seizures with or without secondary generalization despite being treated with up to 3 AEDs. Participants were randomized to adjunctive placebo (N=49) or GNX liquid suspension (N=98) titrated to a target dose of at 500 mg TID (1500 mg/day) in addition to their baseline AEDs, after which they entered an eight-week prospective baseline period followed by a 10-week double-blind phase. The primary endpoint was the reduction in weekly frequency of focal motor, focal impaired awareness and focal to bilateral tonic-clonic seizures from baseline to the double-blind phase. The prespecified primary analysis was the reduction in mean weekly seizure frequency, with log-transformed rates analyzed using analysis of covariance (ANCOVA). The protocol defined the population for analysis (“Primary Population”) as participants with 10 or fewer seizures/week during the baseline period.

[5] = tested on: seizure occurrence in presurgical epilepsy participants; experiment: Double-blind placebo-controlled study during AED discontinuation with inpatient continuous EEG monitoring; details: 500 mg TID or 625 mg TID, up to 8 days; log-rank p=0.08
Protocol: A double-blind, placebo-controlled study that enrolled 52 participants 18-65 years of age undergoing AED discontinuation during inpatient continuous EEG monitoring as part of an evaluation for surgical treatment of epilepsy was performed. Participants were randomized and administered: (i) ganaxolone 500 mg TID, (ii) 625 mg TID, or (iii) matching placebo and treated for up to 8 days. The primary endpoint was difference in the duration of treatment before meeting withdrawal criteria based on seizure occurrence.

CC(=O)[C@H]1CC[C@H]2[C@@H]3CC[C@H]4C[C@](C)(O)CC[C@]4(C)[C@H]3CC[C@]12C [ganaxolone]
Mean GNX level ([1]; High GNX level tertile (n = 12)): 172.6 ng/mL | Mean GNX level ([1]; Low GNX level tertile (n = 13)): 40.2 ng/mL | Mean GNX level ([1]; Medium GNX level tertile (n = 13)): 72.3 ng/mL | Median % reduction GNX ([2]; Phase 3, 1800 mg/d, BID, N 179): 21.3% | percent reduction in seizure frequency from baseline period to double-blind phase ([2]; mITT, Cohort 2, 1800 mg/d, 28-day frequency, p=0.179 vs placebo): 21.3% | clinical endpoint outcome ([2]; oral 1800 mg daily (900 mg twice a day), adults with focal seizures): clinical endpoint was not achieved | seizure reduction predicted at plasma concentration of approximately 100 ng/mL [3]: approximately 40% | median percent reduction in seizure frequency ([4]; ITT population, 1500 mg/day TID, p=0.014 vs placebo): 25.9% | net reduction in weekly seizure frequency compared to placebo ([4]; ITT population, p=0.049): 11.4% | Median % reduction GNX ([4]; Phase 2, 1500 mg/d, TID, N 98): 25.9% | net reduction in weekly seizure frequency compared to placebo ([4]; Primary Population (10 or fewer seizures/week at baseline), p=0.042): 11.8% | weekly seizure frequency during the double-blind phase ([4]; Primary Population, 500 mg TID liquid suspension, adjunctive, baseline 3.13): 2.70 | duration of treatment before meeting withdrawal criteria based on seizure occurrence, relative to placebo [5]: longer duration of treatment prior to study withdrawal
